Patent US12365667B2, “Sulfone pyridine alkyl amide-substituted heteroaryl compounds” (BRISTOL-MYERS SQUIBB COMPANY, priority 2017, dated 2025)

test system: IFNα-induced STAT phosphorylation (pSTAT5) in human whole blood; test: IFNα-Induced STAT Phosphorylation in Human Whole Blood; type: cell-based; conditions: 1 h incubation with compound, 1000 U/mL recombinant human IFNα A/D for 15 min, pSTAT5 in CD3 positive population, read-out: IFNα-Induced Stat Phosph. (IC50)

IC50 [nM]	SMILES
49	CNC(=O)c1nnc(Nc2ccn(CC(F)(F)F)n2)cc1Nc1ncccc1S(C)(=O)=O [Example 26]
23	CNC(=O)c1nnc(Nc2cc(C3CC3)nc(C)n2)cc1Nc1ncccc1S(C)(=O)=O [Example 165]
11	CNC(=O)c1nnc(Nc2ccc(C)nn2)cc1Nc1ncccc1S(C)(=O)=O [Example 85]
398	CNC(=O)c1nnc(Nc2ccc(OCC(C)(C)O)cn2)cc1Nc1ncccc1S(C)(=O)=O [Example 77]
46	Cn1ccc(Nc2cc(Nc3ncccc3S(C)(=O)=O)c(C(N)=O)nn2)n1 [compound 214]
262	CNC(=O)c1nnc(NC(=O)C2CC2(C)C)cc1Nc1nc(C)ccc1S(C)(=O)=O (stereo not shown) [Example 198]
18	CNC(=O)c1nnc(Nc2ccc(N(C)C)nn2)cc1Nc1ncccc1S(C)(=O)=O [Example 38]
38	CNC(=O)c1nnc(Nc2cc(C#N)n(C)n2)cc1Nc1ncccc1S(C)(=O)=O [Example 12]
263	CNC(=O)c1nnc(Nc2ccc(-c3c(F)cccc3F)nn2)cc1Nc1nc(C)ccc1S(C)(=O)=O [Example 184]
13	CNC(=O)c1nnc(Nc2ccc(N3CCOCC3)cn2)cc1Nc1nc(C)ccc1S(C)(=O)=O [Example 192]
14	CNC(=O)c1nnc(NC(=O)[C@@H]2C[C@@H]2F)cc1Nc1ncccc1S(C)(=O)=O [Example 44]
57	CNC(=O)c1nnc(Nc2cc3ccc(C(C)(C)O)cc3cn2)cc1Nc1ncccc1S(C)(=O)=O [Example 30]
1570	CNC(=O)c1nnc(NC(=O)COCc2ccccc2)cc1Nc1ncccc1S(C)(=O)=O [Example 133]
10	CNC(=O)c1nnc(Nc2ccc(C(C)(C)C)nn2)cc1Nc1ncccc1S(C)(=O)=O [Example 245, 6-((6-(tert-butyl)pyridazinyl-3-yl)amino)-N-(methyl-d3)-4-((3-(methylsulfonyl)pyridin-2-yl)amino)pyridazine-3-carboxamide]
3	CNC(=O)c1nnc(Nc2ccc(N3CCOCC3)cn2)cc1Nc1ncccc1S(C)(=O)=O [Example 81]
47	CNC(=O)c1cnc(Nc2cc(C3CC3)nc(C)n2)cc1Nc1ncccc1S(C)(=O)=O [Example 229]
42	CNC(=O)c1nnc(Nc2cc(COC)ncn2)cc1Nc1ncccc1S(C)(=O)=O [Example 84]
15	CNC(=O)c1cnc(Nc2ccc(C#N)cn2)cc1Nc1ncccc1S(C)(=O)=O [Example 220]
26	CNC(=O)c1nnc(Nc2cnc(C3CC3)cn2)cc1Nc1ncccc1S(C)(=O)=O [Example 37]
37	CNC(=O)c1nnc(Nc2cccc(C)n2)cc1Nc1ncccc1S(C)(=O)=O [Example 82]

IC50 [nM]	SMILES
2	CNC(=O)c1nnc(Nc2ccc(C(C)(C)O)c(F)n2)cc1Nc1ncccc1S(C)(=O)=O [Example 151]
466	CNC(=O)c1nnc(Nc2ccc(OC)nn2)cc1Nc1ncccc1[S+](C)[O-] (stereo not shown) [Example 255]
90	CNC(=O)c1nnc(Nc2cc(N3CCC3)ncn2)cc1Nc1ncccc1S(C)(=O)=O [Example 35]
88	CNC(=O)c1nnc(NC(=O)CC2CC2)cc1Nc1ncccc1S(C)(=O)=O [Example 164]
18	CNC(=O)c1nnc(Nc2ccc(C(C)(C)N3CCOC3=O)cn2)cc1Nc1ncccc1S(C)(=O)=O [Example 75]
92	CNC(=O)c1nnc(Nc2cc(C(F)(F)F)c(C(=O)N(C)C3CC3)cn2)cc1Nc1ncccc1S(C)(=O)=O [Example 52]
156	CNC(=O)c1nnc(NC(=O)NC(C)(C)C)cc1Nc1ncccc1S(C)(=O)=O [Example 122]
32	CNC(=O)c1nnc(Nc2ccc(-n3cc(Cl)ccc3=O)cn2)cc1Nc1ncccc1S(C)(=O)=O [Example 89]
334	CNC(=O)c1nnc(Nc2cccc(-c3ccccc3)n2)cc1Nc1ncccc1S(C)(=O)=O [Example 117]
43	CNC(=O)c1nnc(Nc2ccc(C(F)(F)F)cn2)cc1Nc1ncccc1S(C)(=O)=O [Example 91]
28	CNC(=O)c1nnc(Nc2cnc(C)cn2)cc1Nc1ncccc1S(C)(=O)=O [Example 93]
1240	CNC(=O)c1nnc(NC(=O)C2Cc3ccccc32)cc1Nc1ncccc1S(C)(=O)=O (stereo not shown) [Example 66]
1060	CCC(=O)Nc1cc(Nc2nc(F)ccc2S(C)(=O)=O)c(C(=O)NC)nn1 [Example 179]
59	CCCn1cc(Nc2cc(Nc3ncccc3S(C)(=O)=O)c(C(=O)NC)nn2)nn1 [Example 57]
132	CCC(=O)Nc1cc(Nc2nc(C)ccc2S(C)(=O)=O)c(C(=O)NC)nn1 [Example 186]
1100	CNC(=O)c1nnc(Nc2cc(C(C)(C)NC(C)=O)ccn2)cc1Nc1ncccc1S(C)(=O)=O [Example 70]
76	CCOc1ccc(Nc2cc(Nc3ncccc3S(C)(=O)=O)c(C(=O)NC)nn2)nn1 [Example 83]
142	CNC(=O)c1nnc(NC(=O)OC)cc1Nc1ncccc1S(C)(=O)=O [Example 112]
32	CNC(=O)c1nnc(Nc2cc(F)ccn2)cc1Nc1ncccc1S(C)(=O)=O [Example 4]
133	CNC(=O)c1nnc(Nc2cnc(C(F)(F)F)cn2)cc1Nc1ncccc1S(C)(=O)=O [Example 95]

IC50 [nM]	SMILES
24	CNC(=O)c1cnc(Nc2ccc(C(F)(F)F)cn2)cc1Nc1ncccc1S(C)(=O)=O [Example 219]
9	CNC(=O)c1nnc(Nc2ccc(N3CCOC(C)(C)C3)cn2)cc1Nc1ncccc1S(C)(=O)=O [Example 105]
53	CNC(=O)c1nnc(NC(=O)[C@@H]2C[C@H]2C)cc1Nc1ncccc1S(C)(=O)=O [Example 46]
10	CNC(=O)c1nnc(Nc2ccc(OCCOC)cn2)cc1Nc1ncccc1S(C)(=O)=O [Example 158]
66	CCNC(=O)Nc1cc(Nc2nc(C)ccc2S(C)(=O)=O)c(C(=O)NC)nn1 [Example 191]
132	CNC(=O)c1nnc(Nc2cn(C)nn2)cc1Nc1ncccc1S(C)(=O)=O [Example 53]
124	CNC(=O)c1nnc(Nc2ccc(-c3ccccc3)nn2)cc1Nc1ncccc1S(C)(=O)=O [Example 106]
35	CNC(=O)c1nnc(Nc2cc(Cl)c(C(C)(C)O)cn2)cc1Nc1nc(C)ccc1S(C)(=O)=O [Example 194]
40	CNC(=O)c1nnc(NC(=O)[C@@H]2C[C@@H]2C)cc1Nc1ncccc1S(C)(=O)=O [Example 48]
57	CNC(=O)c1nnc(Nc2cnc(OC)cn2)cc1Nc1ncccc1S(C)(=O)=O [Example 80]
13	CNC(=O)c1nnc(Nc2ccc(N3CCOCC3=O)cn2)cc1Nc1ncccc1S(C)(=O)=O [Example 97]
1430	CNC(=O)c1nnc(Nc2ccc(F)nc2)cc1Nc1ncccc1S(C)(=O)=O [Example 16]
34	CNC(=O)c1cnc(Nc2cc(C)c(F)cn2)cc1Nc1ncccc1S(C)(=O)=O [Example 218]
15	CNC(=O)c1nnc(Nc2ccc(N3CC(C)OC(C)C3)cn2)cc1Nc1ncccc1S(C)(=O)=O (stereo not shown) [Example 100]
13	CNC(=O)c1nnc(Nc2cccc(F)n2)cc1Nc1ncccc1S(C)(=O)=O [Example 5]
219	CNC(=O)c1nnc(Nc2cc(C3CC3)c(C#N)cn2)cc1Nc1ncccc1S(C)(=O)=O [Example 59]
181	CNC(=O)c1cnc(Nc2cc(C3CC3)nc(C3CC3)n2)cc1Nc1ncccc1S(C)(=O)=O [Example 228]
49	CNC(=O)c1nnc(Nc2cc(C)nc(C)n2)cc1Nc1ncccc1S(C)(=O)=O [Example 98]
20	CNC(=O)c1nnc(Nc2ccc(N3CCOCC3)nn2)cc1Nc1ncccc1S(C)(=O)=O [Example 110]
20	CNC(=O)c1nnc(Nc2ccc(C(C)(C)N3CCCC3=O)cn2)cc1Nc1ncccc1S(C)(=O)=O [Example 76]

SMILES	IC50 [nM]
CNC(=O)c1nnc(Nc2cc(C)n(C)n2)cc1Nc1ncccc1S(C)(=O)=O [Example 17]	18
CNC(=O)c1nnc(NC2CC2)cc1Nc1ncccc1S(C)(=O)=O [Example 23]	2140
CNC(=O)c1nnc(Nc2ccc(C(C)(C)NC(C)=O)cn2)cc1Nc1ncccc1S(C)(=O)=O [Example 25]	15
CNC(=O)c1nnc(Nc2ccnc(OC)n2)cc1Nc1ncccc1S(C)(=O)=O [Example 21]	37
CNC(=O)c1nnc(Nc2ccc(OC)cn2)cc1Nc1ncccc1S(C)(=O)=O [Example 2]	26

same assay, conditions: Homo sapiens, 1 h incubation with compound, 1000 U/mL recombinant human IFNα A/D for 15 min, pSTAT5 in CD3 positive population, read-out: IFNα-Induced Stat Phosph. (IC50)

IC50 [nM]	SMILES
278	[2H]C([2H])([2H])NC(=O)c1nnc(NC(=O)[C@H]2C[C@@H]2C(F)(F)F)cc1Nc1ncccc1S(C)(=O)=O [Example 175, N-(methyl-d3)-4-((3-(methylsulfonyl)pyridin-2-yl)amino)-6-((1S,2S)-2-(trifluoromethyl)cyclopropane-1-carboxamido)pyridazine-3-carboxamide]
21	[2H]C([2H])([2H])NC(=O)c1cnc(Nc2ccc(F)cn2)cc1Nc1ncccc1S(C)(=O)=O [Example 215, 6-((5-fluoropyridin-2-yl)amino)-N-(methyl-d3)-4-((3-(methylsulfonyl)pyridin-2-yl)amino)nicotinamide]
1030	[2H]C([2H])([2H])NC(=O)c1nnc(NC(=O)CC)cc1Nc1nc(OC)ccc1S(C)(=O)=O [Example 199, 4-((6-methoxy-3-(methylsulfonyl)pyridin-2-yl)amino)-N-(methyl-d3)-6-propionamidopyridazine-3-carboxamide]
8	[2H]C([2H])([2H])NC(=O)c1nnc(Nc2ccc(C(C)(C)NC(C)C)cn2)cc1Nc1ncccc1S(C)(=O)=O [Example 169, 6-((5-(2-(isopropylamino)propan-2-yl)pyridin-2-yl)amino)-N-(methyl-d3)-4-((3-(methylsulfonyl)pyridin-2-yl)amino)pyridazine-3-carboxamide]
90	CCNC(=O)c1nnc(Nc2ccc(C(C)(C)O)cn2)cc1Nc1ncccc1S(C)(=O)=O [Example 211, N-ethyl-6-((5-(2-hydroxypropan-2-yl)pyridin-2-yl)amino)-4-((3-(methylsulfonyl)pyridin-2-yl)amino)pyridazine-3-carboxamide]
